From patent US20250313533A1, “QUINOLINE CARBOXYLIC ACID ESTER COMPOUND AND PREPARATION METHOD AND USE THEREOF” (priority 2019, published 2025)
Where “and” joins values, the source holds several entries; their conditions need not be identical. Equal values may be shown once. Read-outs that look alike come from different tables or passages of the source.

Experiments:
[1] = test system: indoor potted cucumber seedlings; test: Effect of improving growth and development of crops; type: in vivo; design: Rate of growth rate increase (%): concentration or dose not given beside the values; conditions: versus blank control; for Rate of chlorophyll content increase (%) / Rate of leaf area increase (%): 14 days after application; for Rate of growth rate increase (%): plant height 14 days after application; for Rate of leaf area increase (%): second leaf
How it was run: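 Growth effects were scored as percent increases in height growth rate, second-leaf area and chlorophyll (SPAD meter), comparing values taken before and 14 days after application.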

[2] = test system: soft rot in Chinese cabbages; test: whole plant or invertebrate; conditions: 48 h, read-out: efficacy against soft rot in Chinese cabbages
[3] = test system: pathogenic bacteria causing fire blight in pears; test: In vitro bactericidal activity, fire blight in pears; type: cell-based, erwinia; conditions: for inhibition at 1 ppm / inhibition at 5 ppm: Erwinia, read-out: inhibitory rate
[4] = test system: bacterial blight in rice; test: whole plant or invertebrate; conditions: Oryza sativa, read-out: efficacy against bacterial blight in rice
[5] = test system: fruit blotch in watermelons; test: whole plant or invertebrate; conditions: read-out: efficacy against fruit blotch in watermelons
[6] = test system: pathogenic bacteria causing bacterial wilt in tobacco; test: whole plant or invertebrate; type: cell-based, ralstonia; conditions: for inhibition at 1 ppm / inhibition at 5 ppm: read-out: inhibitory rate; for inhibitory rate: in vitro
[7] = test system: soft rot in lettuces; test: Field test for controlling soft rot in lettuces; type: in vivo, lettuce; conditions: 7 days after the last application
Description: (§1) In October 2019, tests were carried out in fields of Chinese cabbage, wild cabbage and lettuce in Tai'an, Shandong. The doses of the compounds 152 and 282 of the present disclosure (both prepared as dispersible granules with a mass fraction of 10%) used were 16.87 ga.i./hm^2 and 33.75 ga.i./hm^2, and the control agents used were 3% (by weight) wettable powder of zhongshengmycin and 33.5% (by weight) aqueous suspension of oxine-copper (both were commercially available). The dose of zhongshengmycin was 67.5 ga.i./hm^2, and the dose of oxine-copper was 337.5 ga.i./hm^2. Test and control agents were arranged in randomized blocks. Plot area was 15 m^2. Treatment was repeated 3 times. The route of application was spraying on stem and leaves. The application was performed 2 times in total at an interval of 7 days, and the efficacy investigation was performed 7 days after the last application. During the investigation, sampling was carried out at 5 points in each plot. Disease conditions of soft rot in Chinese cabbages, soft rot in lettuces and soft rot in wild cabbages were recorded according to the relevant technical standard of Pesticide Guidelines for the Field Efficacy Trials GB/T17980.114-2004, and the incidence rate of plants was calculated to further evaluate the control effect.

[8] = test system: pathogenic bacteria causing stem rot in sweet potatoes; test: In vitro bactericidal activity, stem rot in sweet potatoes; type: cell-based, dikia; conditions: for inhibition at 1 ppm / inhibition at 5 ppm: read-out: inhibitory rate
[9] = test system: soft rot in wild cabbages; test: Field test for controlling soft rot in wild cabbages; type: in vivo, wild cabbage; conditions: 7 days after the last application
Description: as §1

[10] = test system: pathogenic bacteria causing bacterial blight in rice; test: whole plant or invertebrate; type: cell-based, xanthomonas; conditions: for inhibition at 1 ppm / inhibition at 5 ppm: read-out: inhibitory rate; for inhibitory rate: in vitro
[11] = test system: soft rot in Chinese cabbages; test: Field test for controlling soft rot in Chinese cabbages; type: in vivo, Chinese cabbage; conditions: 7 days after the last application
Description: as §1

[12] = test system: stem rot in sweet potatoes; test: whole plant or invertebrate; conditions: read-out: efficacy against stem rot in sweet potatoes
[13] = test system: pathogenic bacteria causing fruit blotch in watermelons; test: In vitro bactericidal activity, fruit blotch in watermelons; type: cell-based, acidovorax; conditions: for inhibition at 1 ppm / inhibition at 5 ppm: read-out: inhibitory rate
[14] = test system: cucumber seedlings; test: Safety for plant growth after application; type: in vivo; conditions: dosage 200 ppm
How it was run: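 Indoor potted cucumber seedlings were treated with the compounds, and crop safety was judged from effects on plant height growth rate, chlorophyll content and leaf area.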

[15] = test system: bacterial wilt in tobacco; test: whole plant or invertebrate; conditions: Nicotiana tabacum, read-out: efficacy against bacterial wilt in tobacco
[16] = test system: pathogenic bacteria causing black shank in potatoes; test: In vitro bactericidal activity, black shank in potatoes; type: cell-based; conditions: for inhibition at 1 ppm / inhibition at 5 ppm: read-out: inhibitory rate
[17] = test system: black shank in potatoes; test: Living crops in vivo protective activity, potatoes (root irrigation); conditions: for pest or weed control at 5 ppm / pest or weed control at 10 ppm: Solanum tuberosum, read-out: efficacy against black shank in potatoes
Description: Root irrigation was carried out on the potatoes for tests according to the designed concentration of the agents. The dosage for each plant was 200 mL and was kept consistent (also for the control). The black shank bacteria were inoculated on the second day after the application. The results were investigated according to the disease condition.

[18] = test system: pathogenic bacteria causing bacterial angular leaf spot in cucumbers; test: In vitro bactericidal activity, bacterial angular leaf spot in cucumbers; type: cell-based, pseudomonas; conditions: for inhibition at 1 ppm / inhibition at 5 ppm: read-out: inhibitory rate
[19] = test system: pathogenic bacteria causing black rot in Chinese cabbages; test: In vitro bactericidal activity, black rot in Chinese cabbages; type: cell-based, xanthomonas; conditions: for inhibition at 1 ppm / inhibition at 5 ppm: Xanthomonas, read-out: inhibitory rate
[20] = test system: pathogenic bacteria causing bacterial wilt in cassava; test: organism not typed; type: cell-based; conditions: for inhibition at 1 ppm / inhibition at 5 ppm: read-out: inhibitory rate; for inhibitory rate: in vitro
[21] = test system: bacterial wilt in tobacco; conditions: seed soaking
[22] = test system: fruit blotch in watermelons; conditions: in vivo
[23] = test system: soft rot in Chinese cabbages; conditions: in vivo
[24] = test system: stem rot in sweet potatoes; conditions: in vivo
[25] = dose 16.87 g a.i./hm^2, 2 sprays
[26] = dose 33.75 g a.i./hm^2, 2 sprays
[27] = dose 337.5 g a.i./hm^2, 2 sprays

COCCOC(=O)c1cn(C2CC2)c2cc(Cl)c(F)cc2c1=O [Compound 152, 2-methoxyethyl 7-chloro-1-cyclopropyl-6-fluoro-4-oxo-1,4-dihydroquinoline-3-carboxylate]
Rate of chlorophyll content increase (%) [1]: 17%
Rate of growth rate increase (%) [1]: 15%
Rate of leaf area increase (%) [1]: 16%
pest or weed control at 5 ppm [2]: ≥ 90%
pest or weed control at 10 ppm [2]: ≥ 90%
inhibition at 1 ppm ([3]; dosage 1 ppm): ≥ 90%
inhibition at 5 ppm ([3]; dosage 5 ppm): ≥ 90%
pest or weed control at 5 ppm [4]: ≥ 90%
pest or weed control at 10 ppm [4]: ≥ 90%
pest or weed control at 5 ppm [5]: ≥ 90%
pest or weed control at 10 ppm [5]: ≥ 90%
inhibition at 1 ppm [6]: ≥ 90%
inhibition at 5 ppm [6]: ≥ 90%
Control effect (%) [7, 25]: 79%
Control effect (%) [7, 26]: 90%
inhibition at 1 ppm ([8]; dosage 1 ppm): ≥ 90%
inhibition at 5 ppm ([8]; dosage 5 ppm): ≥ 90%
Control effect (%) [9, 25]: 82%
Control effect (%) [9, 26]: 93%
inhibition at 1 ppm [10]: ≥ 90%
inhibition at 5 ppm [10]: ≥ 90%
Control effect (%) [11, 25]: 86%
Control effect (%) [11, 26]: 96%
pest or weed control at 5 ppm [12]: ≥ 90%
pest or weed control at 10 ppm [12]: ≥ 90%
inhibition at 1 ppm ([13]; dosage 1 ppm): ≥ 90%
inhibition at 5 ppm ([13]; dosage 5 ppm): ≥ 90%
safety for plant growth (discoloration, necrosis, wilt, malformation) [14]: safe for plant growth
pest or weed control at 5 ppm [15]: ≥ 90%
pest or weed control at 10 ppm [15]: ≥ 90%
inhibition at 1 ppm ([16]; dosage 1 ppm): ≥ 90%
inhibition at 5 ppm ([16]; dosage 5 ppm): ≥ 90%
pest or weed control at 5 ppm ([17]; dosage 5 ppm): ≥ 90%
pest or weed control at 10 ppm ([17]; dosage 10 ppm): ≥ 90%
inhibition at 1 ppm ([18]; dosage 1 ppm): ≥ 90%
inhibition at 5 ppm ([18]; dosage 5 ppm): ≥ 90%
inhibition at 1 ppm ([19]; dosage 1 ppm): ≥ 90%
inhibition at 5 ppm ([19]; dosage 5 ppm): ≥ 90%
inhibition at 1 ppm [20]: ≥ 90%
inhibition at 5 ppm [20]: ≥ 90%

CCOc1cc2c(cc1F)c(=O)c(C(=O)OCCOC)cn2C1CC1 [Compound 282, 2-methoxyethyl 1-cyclopropyl-6-fluoro-4-oxo-7-ethoxy-1,4-dihydroquinoline-3-carboxylate]
Rate of chlorophyll content increase (%) [1]: 16%
Rate of growth rate increase (%) [1]: 12%
Rate of leaf area increase (%) [1]: 16%
pest or weed control at 5 ppm [2]: ≥ 90%
pest or weed control at 10 ppm [2]: ≥ 90%
inhibition at 1 ppm ([3]; dosage 1 ppm): ≥ 90%
inhibition at 5 ppm ([3]; dosage 5 ppm): ≥ 90%
pest or weed control at 5 ppm [4]: ≥ 90%
pest or weed control at 10 ppm [4]: ≥ 90%
pest or weed control at 5 ppm [5]: ≥ 90%
pest or weed control at 10 ppm [5]: ≥ 90%
inhibition at 1 ppm [6]: ≥ 90%
inhibition at 5 ppm [6]: ≥ 90%
Control effect (%) [7, 25]: 73%
Control effect (%) [7, 26]: 85%
inhibition at 1 ppm ([8]; dosage 1 ppm): ≥ 90%
inhibition at 5 ppm ([8]; dosage 5 ppm): ≥ 90%
Control effect (%) [9, 25]: 80%
Control effect (%) [9, 26]: 87%
inhibition at 1 ppm [10]: ≥ 90%
inhibition at 5 ppm [10]: ≥ 90%
Control effect (%) [11, 25]: 82%
Control effect (%) [11, 26]: 90%
pest or weed control at 5 ppm [12]: ≥ 90%
pest or weed control at 10 ppm [12]: ≥ 90%
inhibition at 1 ppm ([13]; dosage 1 ppm): ≥ 90%
inhibition at 5 ppm ([13]; dosage 5 ppm): ≥ 90%
safety for plant growth (discoloration, necrosis, wilt, malformation) [14]: safe for plant growth
pest or weed control at 5 ppm [15]: ≥ 90%
pest or weed control at 10 ppm [15]: ≥ 90%
inhibition at 1 ppm ([16]; dosage 1 ppm): ≥ 90%
inhibition at 5 ppm ([16]; dosage 5 ppm): ≥ 90%
pest or weed control at 5 ppm ([17]; dosage 5 ppm): ≥ 90%
pest or weed control at 10 ppm ([17]; dosage 10 ppm): ≥ 90%
inhibition at 1 ppm ([18]; dosage 1 ppm): ≥ 90%
inhibition at 5 ppm ([18]; dosage 5 ppm): ≥ 90%
inhibition at 1 ppm ([19]; dosage 1 ppm): ≥ 90%
inhibition at 5 ppm ([19]; dosage 5 ppm): ≥ 90%
inhibition at 1 ppm [20]: ≥ 90%
inhibition at 5 ppm [20]: ≥ 90%

COCCOC(=O)c1cn(C2CC2)c2cc(N3CCCCC3)c(F)cc2c1=O [Compound 432]
Rate of chlorophyll content increase (%) [1]: 16%
Rate of growth rate increase (%) [1]: 12%
Rate of leaf area increase (%) [1]: 16%
pest or weed control at 5 ppm [2]: ≥ 90%
pest or weed control at 10 ppm [2]: ≥ 90%
inhibition at 1 ppm ([3]; dosage 1 ppm): ≥ 90%
inhibition at 5 ppm ([3]; dosage 5 ppm): ≥ 90%
pest or weed control at 5 ppm [4]: ≥ 90%
pest or weed control at 10 ppm [4]: ≥ 90%
pest or weed control at 5 ppm [5]: ≥ 90%
pest or weed control at 10 ppm [5]: ≥ 90%
inhibition at 1 ppm [6]: ≥ 90%
inhibition at 5 ppm [6]: ≥ 90%
inhibition at 1 ppm ([8]; dosage 1 ppm): ≥ 90%
inhibition at 5 ppm ([8]; dosage 5 ppm): ≥ 90%
inhibition at 1 ppm [10]: ≥ 90%
inhibition at 5 ppm [10]: ≥ 90%
pest or weed control at 5 ppm [12]: ≥ 90%
pest or weed control at 10 ppm [12]: ≥ 90%
inhibition at 1 ppm ([13]; dosage 1 ppm): ≥ 90%
inhibition at 5 ppm ([13]; dosage 5 ppm): ≥ 90%
safety for plant growth (discoloration, necrosis, wilt, malformation) [14]: safe for plant growth
pest or weed control at 5 ppm [15]: ≥ 90%
pest or weed control at 10 ppm [15]: ≥ 90%
inhibition at 1 ppm ([16]; dosage 1 ppm): ≥ 90%
inhibition at 5 ppm ([16]; dosage 5 ppm): ≥ 90%
pest or weed control at 5 ppm ([17]; dosage 5 ppm): ≥ 90%
pest or weed control at 10 ppm ([17]; dosage 10 ppm): ≥ 90%
inhibition at 1 ppm ([18]; dosage 1 ppm): ≥ 90%
inhibition at 5 ppm ([18]; dosage 5 ppm): ≥ 90%
inhibition at 1 ppm ([19]; dosage 1 ppm): ≥ 90%
inhibition at 5 ppm ([19]; dosage 5 ppm): ≥ 90%
inhibition at 1 ppm [20]: ≥ 90%
inhibition at 5 ppm [20]: ≥ 90%

[Cu+2].[O-]c1cccc2cccnc12.[O-]c1cccc2cccnc12 [oxine-copper, reference compound]
inhibitory rate ([3]; dosage 1 ppm): 0%
inhibitory rate ([3]; dosage 5 ppm): 3%
efficacy against bacterial wilt in tobacco ([21]; dosage 5 ppm): 5%
efficacy against bacterial wilt in tobacco ([21]; dosage 10 ppm): 11%
inhibitory rate ([6]; dosage 1 ppm): 0%
inhibitory rate ([6]; dosage 5 ppm): 5%
Control effect (%) [7, 27]: 9%
efficacy against fruit blotch in watermelons [22]: 22% and 15%
inhibitory rate ([8]; dosage 1 ppm): 2%
inhibitory rate ([8]; dosage 5 ppm): 7%
Control effect (%) [9, 27]: 11%
inhibitory rate ([10]; dosage 1 ppm): 9%
inhibitory rate ([10]; dosage 5 ppm): 16%
Control effect (%) [11, 27]: 13%
efficacy against soft rot in Chinese cabbages [23]: 16% and 6%
inhibitory rate ([13]; dosage 1 ppm): 0%
inhibitory rate ([13]; dosage 5 ppm): 3%
inhibitory rate ([16]; dosage 1 ppm): 0%
inhibitory rate ([16]; dosage 5 ppm): 3%
efficacy against stem rot in sweet potatoes [24]: 20% and 13%
efficacy against black shank in potatoes ([17]; dosage 5 ppm): 11%
efficacy against black shank in potatoes ([17]; dosage 10 ppm): 22%
inhibitory rate ([18]; dosage 1 ppm): 0%
inhibitory rate ([18]; dosage 5 ppm): 2%
inhibitory rate ([19]; dosage 1 ppm): 0%
inhibitory rate ([19]; dosage 5 ppm): 5%
inhibitory rate ([20]; dosage 1 ppm): 7%
inhibitory rate ([20]; dosage 5 ppm): 15%
